Measured values as given in ChEMBL document CHEMBL6153133, “Discovery of Diphenyl Ether Derivatives as Novel BKCa Channel Activators: Structure-Activity Relationship, Cryo-EM Complex Structures, and In Vivo Animal Studies” (J Med Chem, 2025).
Values belong to the molecule of their own block, whether it stands above or below them. Calls of active or inactive are those of the source. The rule behind the calls is not given here.

How the values were obtained:
[1] = Activation of rat BKca channel extracted from Xenopus laevis Oocytes by patch-clamp electrophysiology recordings; type: cell-based; conditions: Oocyte
[2] = Metabolic stability in human liver microsomes assessed as parent compound remaining at 1 uM preincubated for 5 mins followed by NADPH addition and measured after 30 mins by LC-MS/MS analysis; type: ADME, Microsome; conditions: read-out: Stability
[3] = target: Calcium-activated potassium channel subunit alpha-1 (Homo sapiens, UniProt Q12791, G803D/N806K); assay: (§1) Activation of hyperactive human BKca channel G803D/N806K mutant transfected in human AD-293 cells incubated for 15 mins by Flexstation3 multimode microplate reader analysis; type: cell-based
Sequence of Calcium-activated potassium channel subunit alpha-1 (Homo sapiens, UniProt Q12791, G803D/N806K) (Q12791 whole entry, looked up, stated change not applied): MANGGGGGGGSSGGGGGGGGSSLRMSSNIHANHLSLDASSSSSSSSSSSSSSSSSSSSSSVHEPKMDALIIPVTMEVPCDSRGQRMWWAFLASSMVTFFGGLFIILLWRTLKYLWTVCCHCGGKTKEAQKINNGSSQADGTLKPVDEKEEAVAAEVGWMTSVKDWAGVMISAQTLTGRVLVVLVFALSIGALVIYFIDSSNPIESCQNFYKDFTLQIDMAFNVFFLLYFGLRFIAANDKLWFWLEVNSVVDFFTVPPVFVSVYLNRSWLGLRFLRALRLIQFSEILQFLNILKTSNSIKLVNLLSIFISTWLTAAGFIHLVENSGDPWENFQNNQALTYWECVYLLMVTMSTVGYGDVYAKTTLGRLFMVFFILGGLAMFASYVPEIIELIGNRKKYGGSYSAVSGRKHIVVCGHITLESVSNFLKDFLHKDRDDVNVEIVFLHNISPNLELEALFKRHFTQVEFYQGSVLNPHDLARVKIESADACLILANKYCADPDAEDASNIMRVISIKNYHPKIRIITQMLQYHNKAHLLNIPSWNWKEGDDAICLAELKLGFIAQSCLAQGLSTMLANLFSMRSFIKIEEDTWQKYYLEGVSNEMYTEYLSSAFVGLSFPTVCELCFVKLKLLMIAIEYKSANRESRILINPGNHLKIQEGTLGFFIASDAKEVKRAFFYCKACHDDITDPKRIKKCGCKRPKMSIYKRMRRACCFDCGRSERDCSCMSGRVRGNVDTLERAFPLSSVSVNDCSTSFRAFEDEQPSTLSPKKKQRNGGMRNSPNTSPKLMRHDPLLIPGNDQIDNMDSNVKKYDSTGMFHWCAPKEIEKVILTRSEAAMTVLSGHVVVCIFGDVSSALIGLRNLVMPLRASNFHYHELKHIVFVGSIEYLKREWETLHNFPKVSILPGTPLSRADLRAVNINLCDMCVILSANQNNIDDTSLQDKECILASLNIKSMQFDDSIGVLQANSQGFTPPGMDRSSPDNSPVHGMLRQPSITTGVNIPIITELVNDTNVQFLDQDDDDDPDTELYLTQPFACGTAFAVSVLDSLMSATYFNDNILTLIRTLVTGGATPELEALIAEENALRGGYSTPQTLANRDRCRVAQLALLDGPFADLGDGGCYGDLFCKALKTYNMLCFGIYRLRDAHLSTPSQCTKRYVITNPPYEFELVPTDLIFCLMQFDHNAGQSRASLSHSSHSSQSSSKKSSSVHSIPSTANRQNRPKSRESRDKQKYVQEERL

[4] = Metabolic stability in rat liver microsomes assessed as parent compound remaining at 1 uM preincubated for 5 mins followed by NADPH addition and measured after 30 mins by LC-MS/MS analysis; type: ADME, Microsome; conditions: read-out: Stability
[5] = Permeability of compound at pH 7.4 measured after 4 hrs by GIT-PAMPA assay; type: ADME; conditions: read-out: permeability
[6] = test system: Calcium-activated potassium channel subunit alpha-1 (Homo sapiens), Q12791 [UNDEFINED MUTATION]; assay: (§2) Activation of hyperactive human BKca channel G803D/N806K mutant transfected in human AD-293 cells assessed as maximum relative fluorescence value at 5 uM preincubated for 15 mins followed by Tl+ stimulus buffer addition and measured after 80 sec by Flexstation3 multimode microplate reader analysis relative to control; type: cell-based; conditions: time 980.0 sec
Sequence of Calcium-activated potassium channel subunit alpha-1 (Homo sapiens), Q12791 [UNDEFINED MUTATION] (Q12791 whole entry, looked up, stated change not applied): as above

[7] = test system: Calcium-activated potassium channel subunit alpha-1 (Homo sapiens), Q12791 [UNDEFINED MUTATION]; assay: as §1; type: cell-based
[8] = test system: Calcium-activated potassium channel subunit alpha-1 (Homo sapiens), Q12791 [UNDEFINED MUTATION]; assay: as §2, with “at 1” for “at 5”; type: cell-based; conditions: time 980.0 sec
Rattus norvegicus [9] = assay: Reversal of urinary incontinence in male spontaneous hypertensive rat model assessed as decrease in urine frequency at 20 to 40 mg/kg, po measured after 3 hrs; type: functional, organism-based; conditions: dose 20-40 mg/kg
[10] = Cmax in male Sprague-Dawley rat at 10 mg/kg, po by LC-MS/MS analysis; type: ADME, organism-based; conditions: in vivo
[11] = AUClast in male Sprague-Dawley rat at 10 mg/kg, po by LC-MS/MS analysis; type: ADME, organism-based; conditions: in vivo
[12] = Toxicity in male spontaneous hypertensive rat model at 100 mg/kg, po; type: organism-based; conditions: in vivo
[13] = Half-life in male Sprague-Dawley rat at 10 mg/kg, po by LC-MS/MS analysis; type: ADME, organism-based; conditions: in vivo
[14] = Tmax in male Sprague-Dawley rat at 10 mg/kg, po by LC-MS/MS analysis; type: ADME, organism-based; conditions: in vivo
Rattus norvegicus [15] = assay: Reversal of urinary incontinence in male spontaneous hypertensive rat model assessed as decrease in urine frequency at 100 mg/kg, po measured after 3 hrs relative to control; type: functional; set-up: scale not given: the % may be the effect or the level left
Rattus norvegicus [16] = assay: Reversal of urinary incontinence in male spontaneous hypertensive rat model assessed as decrease in urine volume at 100 mg/kg, po measured after 3 hrs relative to control; type: functional; set-up: scale not given: the % may be the effect or the level left
Oocyte [17] = assay: Activation of […] rat BKca channel W22A mutant extracted from Xenopus laevis Oocytes assessed as negative shift in V1/2 at 5 uM at -100 mV holding potential by patch-clamp electrophysiology recordings; type: cell-based; conditions: filed as opener
Oocyte [18] = assay: Activation of […] rat BKca channel S259A mutant extracted from Xenopus laevis Oocytes assessed as negative shift in V1/2 at 5 uM at -100 mV holding potential by patch-clamp electrophysiology recordings; type: cell-based; conditions: filed as opener
Oocyte [19] = assay: Activation of wildtype rat BKca channel extracted from Xenopus laevis Oocytes assessed as negative shift in V1/2 at 5 uM at -100 mV holding potential by patch-clamp electrophysiology recordings; type: cell-based; conditions: filed as opener
Oocyte [20] = assay: Activation of […] rat BKca channel F266A mutant extracted from Xenopus laevis Oocytes assessed as negative shift in V1/2 at 5 uM at -100 mV holding potential by patch-clamp electrophysiology recordings; type: cell-based; conditions: filed as opener
[21] = test system: Calcium-activated potassium channel subunit alpha-1 (Homo sapiens), Q12791 [UNDEFINED MUTATION]; assay: Activation of hyperactive human BKca channel G803D/N806K mutant transfected in human AD-293 cells at >2 uM preincubated for 15 mins followed by Tl+ stimulus buffer addition and measured after 80 sec in presence of paxilline by Flexstation3 multimode microplate reader analysis; type: cell-based; conditions: filed as opener, time 980.0 sec
Rattus norvegicus [22] = assay: Reversal of urinary incontinence in male spontaneous hypertensive rat model assessed as decrease in urine frequency at 10 to 50 mg/kg, po measured after 3 hrs; type: functional, organism-based; conditions: dose 10-50 mg/kg
[23] = target: T1, Calcium-activated potassium channel subunit alpha-1 (Homo sapiens, UniProt Q12791); assay: Activation of BKca channel (unknown origin) by cell-based fluorescence assay
T1 sequence (Q12791 whole entry): as the sequence (Q12791 whole entry, looked up, stated change not applied) above

[24] = target: T1, Calcium-activated potassium channel subunit alpha-1; assay: Activation of BKca channel (unknown origin) by cell based method

Activity [7]: inactive
SMILES: NCc1ccc(Oc2c(F)c(F)c(C(F)(F)F)c(F)c2F)c(O)c1

Activity ([6]; filed as opener): 102%
EC50 [3]: 680 nM
Activity ([8]; filed as opener): 81.3%
SMILES: Oc1ccc(Oc2c(F)c(F)c(C(F)(F)F)c(F)c2F)c(O)c1

Activity [6]: 28.1%
SMILES: CCCNc1ccc(Oc2c(F)c(F)c(C(F)(F)F)c(F)c2F)c(O)c1

Activity [6]: 3.3%
SMILES: NCCNc1ccc(Oc2c(F)c(F)c(C(F)(F)F)c(F)c2F)c(O)c1

Activity ([6]; filed as opener): 100%
Activity ([8]; filed as opener): 100%
Activity [21]: Active
SMILES: Nc1ccc(Oc2c(F)c(F)c(C(F)(F)F)c(F)c2F)c(O)c1
Activity (Rattus norvegicus [22]): inactive

Activity [6]: 37.9%
SMILES: Nc1ccc(Oc2c(F)c(F)c(C(F)(F)F)c(F)c2F)c(CO)c1

Activity ([6]; filed as opener): 53.4%
SMILES: NCCCCCNc1ccc(Oc2c(F)c(F)c(C(F)(F)F)c(F)c2F)c(O)c1

Activity ([6]; filed as opener): 65.7%
SMILES: CCNc1ccc(Oc2c(F)c(F)c(C(F)(F)F)c(F)c2F)c(O)c1

Activity [6]: 10.2%
SMILES: CN(C)c1ccc(Oc2c(F)c(F)c(C(F)(F)F)c(F)c2F)c(O)c1

Second part, the molecule before the results:

SMILES: Oc1cc(NCCCCCN2CCOCC2)ccc1Oc1c(F)c(F)c(C(F)(F)F)c(F)c1F [listing 1 of 2 here]
EC50 [1]: 970 nM
remaining at 0.5 h, 1 µM [2]: 96.9%
EC50 [3]: 2820 nM
remaining at 0.5 h, 1 µM [4]: 30.7%
Papp at 4 h [5]: 56.6 ×10⁻⁶ cm/s

SMILES: Fc1c(F)c(C(F)(F)F)c(F)c(F)c1Oc1ccc2[nH]cnc2c1
Activity [6]: 1%

SMILES: COc1cc(O)ccc1Oc1c(F)c(F)c(Cl)c(F)c1F
Activity [7]: inactive

SMILES: NC(=O)c1ccc(Oc2c(F)c(F)c(C(F)(F)F)c(F)c2F)cc1
Activity [7]: inactive

SMILES: Nc1ccc(Oc2c(F)c(F)c(C(F)(F)F)c(F)c2F)c(F)c1
remaining at 0.5 h, 1 µM [2]: 14.8%
Activity ([6]; filed as opener): 83%
EC50 [3]: 1370 nM
remaining at 0.5 h, 1 µM [4]: 12.7%
Activity [8]: 17.9%

SMILES: Oc1ccc(Oc2ccc(Cl)c(F)c2)c(O)c1
Activity [6]: 8.1%

SMILES: Nc1ccc(Oc2c(F)c(F)c(C(F)(F)F)c(F)c2F)cc1
remaining at 0.5 h, 1 µM [2]: 7.4%
Activity ([6]; filed as opener): 86.8%
remaining at 0.5 h, 1 µM [4]: 18.6%
Activity [8]: 18.1%

SMILES: COc1cc(N)ccc1Oc1c(F)c(F)c(C(F)(F)F)c(F)c1F
Activity ([6]; filed as opener): 107%
Activity (Rattus norvegicus [9]): inactive
Activity [8]: 31.8%

SMILES: Oc1ccc(Oc2c(F)cc(C(F)(F)F)cc2F)c(O)c1
Activity ([6]; filed as opener): 66.9%

SMILES: Nc1ccc(Oc2c(F)c(F)c(C(F)(F)F)c(F)c2F)nc1
Activity [7]: inactive

SMILES: Oc1ccc(Oc2ccc(Cl)cc2)c(O)c1
Activity [6]: 1.2%

SMILES: Cl.Cl.Oc1cc(NCCCCN2CCOCC2)ccc1Oc1c(F)c(F)c(C(F)(F)F)c(F)c1F
Cmax [10]: 72.1 ng/mL
AUC(0-t) [11]: 223 ng·h/mL
Activity [12]: Non-toxic
half-life [13]: 3.7 h
Tmax [14]: 0.7 h
Activity (Rattus norvegicus [15]): 43.2%
Activity (Rattus norvegicus [16]): 49.2%

SMILES: Oc1cc(NCCCCN2CCOCC2)ccc1Oc1c(F)c(F)c(C(F)(F)F)c(F)c1F
remaining at 0.5 h, 1 µM [2]: 91.2%
EC50 [3]: 9220 nM
remaining at 0.5 h, 1 µM [4]: 62.5%

SMILES: Oc1cc(NCCCCCN2CCOCC2)ccc1Oc1c(F)c(F)c(C(F)(F)F)c(F)c1F [listing 2 of 2 here]
Activity (Oocyte [17]): 24 mV
Activity ([6]; filed as opener): 81.3%
Activity (Oocyte [18]): 23.5 mV
Activity (Oocyte [19]): 86.2 mV
Activity (Oocyte [20]): 37.9 mV

SMILES: Cc1cccc(NC(=O)c2sc(=S)n3c2[nH]c(=O)c2cc(Br)ccc23)c1
EC50 [23]: 2700 nM
EC50 [24]: 2700 nM

SMILES: Oc1ccccc1Oc1c(F)c(F)c(Cl)c(F)c1F
Activity [6]: -2.7%

SMILES: Fc1c(F)c(C(F)(F)F)c(F)c(F)c1Oc1ccc2[nH]ncc2c1
Activity [6]: 1%

SMILES: Oc1ccc(Oc2ccc(F)c(C(F)(F)F)c2)c(O)c1
Activity [6]: 19.8%

SMILES: Oc1ccc(Oc2c(F)c(F)c(Cl)c(F)c2F)cc1O
Activity [6]: 4%
